Laboratory results reported in PMC3482300 (Nature, 2012).

Columns and labels:
[1] = system: NTS1; settings: cited from earlier work
[2] = system: NTS1; settings: cited from earlier work; remark: listed apart in the source
[3] = molecular target: NTS1-GW5 (Rattus norvegicus, UniProt P20789, A86L/E166A/F358A/G215A/L310A/V360A); assay: Competition of [3H]NT binding by SR48692, NTS1-GW5
NTS1-GW5, sequence (P20789 43-396 A86L/E166A/G215A/L310A/F358A/V360A): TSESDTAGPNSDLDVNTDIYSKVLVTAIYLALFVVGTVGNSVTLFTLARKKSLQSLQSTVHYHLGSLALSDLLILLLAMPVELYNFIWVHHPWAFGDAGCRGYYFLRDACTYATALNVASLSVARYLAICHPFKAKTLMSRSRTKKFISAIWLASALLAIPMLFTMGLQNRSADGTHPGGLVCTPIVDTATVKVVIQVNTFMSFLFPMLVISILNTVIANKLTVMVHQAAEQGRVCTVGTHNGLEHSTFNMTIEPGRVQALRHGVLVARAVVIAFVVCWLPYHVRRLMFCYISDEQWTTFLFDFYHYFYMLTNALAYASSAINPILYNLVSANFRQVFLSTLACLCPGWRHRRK

Molecule: KIPYIL [neuromedin N]
- binding to NTS1 [1]: binds

Molecule: Arg-Arg-Pro-Tyr-Ile-Leu [NT8-13]
- efficacy compared to full-length NT [2]: higher potency and efficacy
- potency compared to full-length NT [2]: higher potency

Molecule: COc1cccc(OC)c1-c1cc(C(=O)NC2(C(=O)O)C3CC4CC(C3)CC2C4)nn1-c1ccnc2cc(Cl)ccc12 (stereo not shown) [SR48692]
- apparent affinity for SR48692 compared to wild-type [3]: lower
